Assay results: US20230226072A1 (priority 2020, published 2023)

Key:
Influenza A N1H1 = experiment: In vivo antiviral efficacy in Balb/c mice, lung virus titer by TCID50 assay
Description: Mice received a daily MB-dose of 5 mg/kg based on a daily drinking volume of ˜5-6 ml and a body weight of 25-35 g. The control group received drinking water with saccharin but without methylene blue.
Mice were euthanized and lungs were removed on day 3 post challenge with influenza H1N1 virus. These tissue samples were stored at <−60° C. until they were transferred into homogenization tubes containing 1 ml cell medium supplemented with antibiotics. The lungs were homogenized two times at 5000 rpm for twenty seconds with 10 seconds pause between the intervals with a tissue homogenizer. The infectious H1N1 virus titer in homogenized lung samples was determined by a TCID50 assay performed by titration on Madin-Darby Canine Kidney (MDCK) cells as described above.

[1] = in vivo; cited from earlier work

| Structure (SMILES) | viricidal efficacy, lung virus titer (TCID50 assay) (Influenza A N1H1; prophylactic application, 5 mg/kg daily in drinking water from day 0, challenge day 10, lungs 3 days later) | viricidal efficacy, lung virus titer (TCID50 assay) (Influenza A N1H1; therapeutic application, 5 mg/kg daily in drinking water from day 11, challenge day 10) | initial half-life [1] [h] | terminal half-life [1] [h] |
| --- | --- | --- | --- | --- |
| CN(C)c1ccc2nc3ccc(=[N+](C)C)cc-3sc2c1.[Cl-] [methylene blue, [7-(dimethylamino)phenothiazin-3-ylidene]-dimethylazanium; chloride] | significant viricidal efficacy | significant viricidal efficacy |  |  |
| Cc1cc2nc3c(=O)[nH]c(=O)nc-3n(C[C@H](O)[C@H](O)[C@H](O)CO)c2cc1C [riboflavin, 7,8-dimethyl-10-[(2S,3S,4R)-2,3,4,5-tetrahydroxypentyl]benzo[g]pteridine-2,4-dione] |  |  | 1.4 | 14 |
